# Patent US12263248B2, “Compounds and compositions for intracellular delivery of therapeutic agents” (ModernaTX, Inc., priority 2018, dated 2025)
# What was measured:
# [1] = Encapsulation efficiency of RNA (QUANT-IT RIBOGREEN RNA assay); assay type: physicochemical; settings: Table 1A
# Procedure, shortened: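 RiboGreen fluorescence (ex ~480, em ~520 nm) compared between intact samples and Triton X-100-lysed samples after 15 min at 37 °C in TE buffer, pH 7.5. Percent free RNA is the blank-corrected intact/disrupted ratio.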
# [2] = tested on: luciferase (Luc) mRNA; assay: Luc expression, whole body bioluminescence after intravenous administration to mice; assay type: in vivo; settings: for Fold increase in total body Luc Flux relative to MC3 at 6 h: Table 3A; for Total Flux 3 hours / Total Flux 6 hours / Total Flux 24 hours: mice, i.v., 0.5 mg/kg, Luc mRNA; for Lipid/MC3 AUC / AUC (p/s * h): Table 3D, intravenous
# Procedure, shortened: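 Luc mRNA nanoparticle formulations given intravenously to mice (n=6) at 0.5 mg/kg; whole-body bioluminescence imaged at 3, 6 and 24 h. CD-1 mice received IP D-luciferin (200 μL of 15 mg/mL) 15 min before imaging; total flux quantified by region of interest.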
# [3] = Particle size and polydispersity index of nanoparticle compositions (Zetasizer Nano ZS); assay type: physicochemical; settings: Table 1A; for Size (nm): lipid:DSPC:cholesterol:PEG-DMG 50:10:38.5:1.5 mol %
# Procedure, shortened: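 In 1×PBS, the compositions were sized on a Zetasizer Nano ZS, which also reported their polydispersity index.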
# [4] = tested on: luciferase (Luc) mRNA; assay: Luc expression in liver, lung, spleen and femur 6 hours after intravenous administration; assay type: in vivo; settings: mice, 0.5 mpk; for Total Flux Liver / Total Flux Lung / Total Flux Spleen: intravenous; for Flux in the spleen: i.v., in words
# Procedure, shortened: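 LNP-formulated mRNA given IV to mice (n=3) at 0.5 mpk; at 6 h, bioluminescence imaged ex vivo 15 min after IP D-luciferin (15 mg/mL, 200 μL), organs imaged within 25 min. Values are total flux by region of interest.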
# [5] = Apparent (surface) pKa of the LNP formulation (TNS assay); assay type: physicochemical; settings: Table 1A
# Protocol: Using sodium hydroxide (1 M) and hydrochloric acid (1 M), 21 unique buffers were prepared from the master buffer stock at pH values between about 3 and 12. Next, a stock of 300 μM 6-(p-Toluidino)-2-naphthalenesulfonic acid sodium salt (TNS reagent) in DMSO was prepared and the LNP was mixed with the desired formulation buffer at a concentration of 0.04 mg/mL mRNA. This assay has been validated in 1× PBS and 20 mM Tris w/8% sucrose buffer. The buffer solutions at various pH values were added to a 96-well plate in triplicate for each pH. To each well was added 3.26 μL of LNP sample at a mRNA concentration of 0.04 mg/mL and 2.0 μL of 300 μM TNS reagent solution. After careful mixing, the resulting fluorescence values were read for each plate to create a sigmoidal plot of the fluorescence values vs. buffer pH. The […] inflection point of this curve is the apparent pKa of the LNP formulation.
EE (%) [1] [%],PDI [3],Size (nm) [3] [nm],pKa [5],SMILES,Fold increase in total body Luc Flux relative to MC3 at 6 h ([2]; i.v. administration),Total Flux 3 hours [2],Total Flux 6 hours [2],Total Flux 24 hours [2],Total Flux Liver [4],Total Flux Lung [4],Total Flux Spleen [4],"6 h Lipid/MC3 Avg. Luc Expression ([2]; Table 3C, i.v. administration)","Fold increase AUC Lipid/MC3 ([2]; Table 3C, i.v. administration)","AUC (h * p/s) ([2]; Table 3C, i.v. administration, Luc)",Flux in the spleen [4],Lipid/MC3 AUC [2],AUC (p/s * h) ([2]; Luc),"flux measured at 6 h relative to the MC3 formulation ([2]; i.v. administration, in words)"
95.11,0.15,73.9,6.64,"CCCCCCCC/C=C\CCCCCCCCN(CCO)CCCCCCCC(=O)OC(CCCCCCCC)CCCCCCCC [Compound 31, heptadecan-9-yl (Z)-8-((2-hydroxyethyl)(octadec-9-en-1-yl)amino) octanoate]",1.21,4.19E+10,5.31E+10,1.68E+09,5.17E+09,7.55E+06,9.42E+07,–,–,–,–,–,–,–
89.5,0.19,110.4,6.98,"CCCCCCCCCOC(=O)CCCCCCCN(CCO)CCCCCCCCCOP(=O)(OCCCCCCCCC)OCCCCCCCCC [Compound 127, Nonyl 8-((9-((bis(nonyloxy)phosphoryl)oxy)nonyl)(2-hydroxyethyl)amino)octanoate]",0.094,3.81E+09,2.09E+09,4.56E+08,1.94E+08,5.26E+06,3.21E+08,–,–,–,–,–,–,–
94.62,0.110,85.6,6.66,"CCCCCCCCCOC(=O)CCCCCCCN(CCO)CCCCCCCCCOC(=O)C(CCCCCC)CCCCCCCC (centres unmarked) [Compound 134, 9-((2-Hydroxyethyl)(8-(nonyloxy)-8-oxooctyl)amino)nonyl 2-hexyldecanoate]",–,2.01E+10,2.91E+10,8.00E+08,1.73E+09,2.82E+06,1.85E+07,3.99,4.16,3.43E+11,–,–,–,–
97.5,0.15,73.7,6.51,"CCCCCCCCC(C)OC(=O)CCCN(CCO)CCCCCCCC(=O)OC(CCCCCCCC)CCCCCCCC (centres unmarked) [Compound 70, Heptadecan-9-yl 8-((4-(decan-2-yloxy)-4-oxobutyl)(2-hydroxyethyl)amino)octanoate]",–,4.70E+10,2.49E+10,9.27E+08,8.55E+08,6.32E+06,2.06E+06,–,–,–,–,–,–,–
97,0.13,107.1,6.83,"CCCCCCCCC(C)OC(=O)CCCCCCCN(CCO)CCCCCCCC(=O)N(CCCCCCCC)CCCCCCCC (centres unmarked) [Compound 130, Decan-2-yl 8-((8-(dioctylamino)-8-oxooctyl)(2-hydroxyethyl)amino)octanoate]",4.02,6.26E+10,8.92E+10,1.08E+09,8.17E+09,5.88E+07,1.35E+09,–,–,–,highest,–,–,–
77.2,0.19,86.3,7.3,"CCCCCCCCCCCOC(=O)CCCCCN(CCO)CCCCCCCC(=O)N(CCCCCCCC)CCCCCCCC [Compound 129, Undecyl 6-((8-(dioctylamino)-8-oxooctyl)(2-hydroxyethyl)amino)hexanoate]",0.203,5.97E+09,4.51E+09,2.22E+08,6.65E+08,9.89E+06,5.09E+08,–,–,–,highest,–,–,–
97.7,0.1,61.3,5.89,"CCCCCCCCC(CCCCCCCC)OC(=O)CCCCCCCN(C)CCCCCCCC(=O)OC(CCCCCCCC)CCCCCCCC [Compound 124, Di(heptadecan-9-yl) 8,8′-(methylazanediyl)dioctanoate]",–,6.62E+07,3.91E+09,5.13E+06,8.46E+06,5.67E+04,8.06E+04,–,–,–,lowest,–,–,–
81.45,0.17,163.5,7.38,"CCCCCCCCCOC(=O)CCCCCCCN(CCO)CCCCCCCC(=O)OC(C)CCCCCCCC (centres unmarked) [Compound 36, decan-2-yl 8-((2-hydroxyethyl)(8-(nonyloxy)-8-oxooctyl)amino) octanoate]",0.004,6.97E+07,1.72E+08,4.44E+05,2.65E+07,5.82E+05,6.14E+07,–,–,–,–,–,–,–
98,0.13,77,6.38,"CCCCCCCCC(CCCCCCCC)OC(=O)CCCCCCCN(CCO)CCCC(=O)OC1CCC(CCCCC)CC1 (centres unmarked) [Compound 67, Heptadecan-9-yl 8-((2-hydroxyethyl)(4-oxo-4-((4-pentylcyclohexyl)oxy)butyl)amino)octanoate]",2.08,4.24E+10,4.62E+10,4.51E+08,3.60E+09,1.68E+07,2.55E+07,–,–,–,–,–,–,–
99.29,0.190,75.9,7.873,"CCCCCCCCCOC(=O)CCCCCCCN(CCO)CCN(CCO)CCCCCCCC(=O)OC(CCCCCCCC)CCCCCCCC [Compound 159, Heptadecan-9-yl 8-((2-hydroxyethyl)(2-((2-hydroxyethyl)(8-(nonyloxy)-8-oxooctyl)amino)ethyl)amino)octanoate]",–,3.32E+06,1.20E+07,4.98E+05,1.13E+06,2.17E+05,7.24E+05,–,–,–,–,<0.01,1.355E+008,–
94.28,0.110,92.9,6.827,"CCCCCCCCCOC(=O)CCCCCCCN(CCCCCCCC(=O)OC(CCCCCCCC)CCCCCCCC)CCOCCO [Compound 154, Heptadecan-9-yl 8-((2-(2-hydroxyethoxy)ethyl)(8-(nonyloxy)-8-oxooctylamino octanoate]",–,2.49E+09,4.89E+09,6.26E+07,3.62E+08,2.89E+06,1.30E+07,–,–,–,–,0.29,5.560E+010,–
97.03,0.16,91.6,6.44,"CCCCCCCCC(CCCCCCCC)OC(=O)CCCCCCCN(CCO)CCCC(=O)OCC1CC1CCCCCC (centres unmarked) [Compound 55, heptadecan-9-yl 8-((4-((2-hexylcyclopropyl)methoxy)-4-oxobutyl)(2-hydroxyethyl)amino)octanoate]",1.52,5.07E+10,1.68E+10,4.06E+08,1.92E+09,7.02E+06,2.63E+07,–,–,–,–,–,–,higher flux than MC3 formulations
95.7,0.13,59.2,5.95,"CCCCCCCCC(CCCCCCCC)OC(=O)CCCCCCCN(CCO)CCCC(=O)OC(CCCCCC)CCCCCCCC (centres unmarked) [Compound 73, Heptadecan-9-yl 8-((2-hydroxyethyl)(4-oxo-4-(pentadecan-7-yloxy)butyl)amino)octanoate]",0.48,8.10E+09,1.07E+10,1.27E+08,7.93E+08,6.17E+06,9.45E+06,–,–,–,–,–,–,–
